Values of other authors as cited in US10052339B2, “Methods and compositions for treating symptoms of diseases related to imbalance of essential fatty acids” (BODYBIO INC, priority 2014, dated 2018).

Columns and labels:
CB1 cannabinoid receptor = CB1 cannabinoid receptor (Homo sapiens, UniProt P21554)
CB2 receptor = CB2 receptor (Homo sapiens, UniProt P34972)
Sequence of CB2 receptor (P34972 whole entry): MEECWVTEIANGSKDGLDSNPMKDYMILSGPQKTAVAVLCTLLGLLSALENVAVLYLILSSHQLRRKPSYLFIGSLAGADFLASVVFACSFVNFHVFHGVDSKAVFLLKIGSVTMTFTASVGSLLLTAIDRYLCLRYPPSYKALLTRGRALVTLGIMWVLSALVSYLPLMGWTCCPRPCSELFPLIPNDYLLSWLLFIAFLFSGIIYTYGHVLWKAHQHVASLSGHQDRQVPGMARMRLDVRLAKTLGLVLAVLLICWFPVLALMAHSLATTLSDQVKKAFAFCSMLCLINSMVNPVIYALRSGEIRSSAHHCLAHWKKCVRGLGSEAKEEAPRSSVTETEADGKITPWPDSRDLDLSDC

Sequence of CB1 cannabinoid receptor (P21554 whole entry): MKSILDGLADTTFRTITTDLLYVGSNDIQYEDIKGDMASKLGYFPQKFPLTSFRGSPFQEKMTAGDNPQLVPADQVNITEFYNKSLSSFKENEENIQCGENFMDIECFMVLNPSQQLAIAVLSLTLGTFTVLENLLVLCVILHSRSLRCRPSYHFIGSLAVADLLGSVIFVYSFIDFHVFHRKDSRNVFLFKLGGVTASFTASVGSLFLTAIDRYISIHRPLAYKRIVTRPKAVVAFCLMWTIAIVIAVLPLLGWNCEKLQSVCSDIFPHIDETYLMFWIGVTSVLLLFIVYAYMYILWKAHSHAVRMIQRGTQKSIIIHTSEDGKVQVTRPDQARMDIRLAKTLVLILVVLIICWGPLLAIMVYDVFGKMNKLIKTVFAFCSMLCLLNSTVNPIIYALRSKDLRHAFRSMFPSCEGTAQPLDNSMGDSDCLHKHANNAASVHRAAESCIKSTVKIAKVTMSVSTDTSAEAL

Compound: CCCCC/C=C\C/C=C\C/C=C\C/C=C\CCCCOC(CO)CO [Noladin ether, 2-arachidonyl glyceryl ether]
- effects caused in mice (mice): sedation, hypothermia, intestinal immobility, and mild antinociception
- Ki (CB1 cannabinoid receptor): 21.2 nM
- binding to the CB2 receptor (CB2 receptor): only weakly
